According to PubChem BioAssay AID256 (DTP/NCI, 2004):
Where “and” joins values, the source holds several entries; their conditions need not be identical. Equal values may be shown once. Toxic doses and inconclusive results are not listed.

Tested on: CD2F1 mice, L1210 leukemia ip, survival T/C
Assay: NCI In Vivo Anticancer Drug Screen. Data for tumor model L1210 Leukemia (intraperitoneal) in CD2F1 (CDF1) mice
Details: higher = longer survival
Method in brief: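 Ratio T/C, where T is the treated-group value and C the vehicle-dosed control value, from mice implanted with a transplantable tumor.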

[1] = endpoint: mean survival time, dose: 100.0 mg/kg/injection, schedule: Q01DX001 (ip), vehicle: saline
[2] = endpoint: mean survival time, dose: 200.0 mg/kg/injection, schedule: Q01DX001 (ip), vehicle: saline
[3] = endpoint: mean survival time, dose: 400.0 mg/kg/injection, schedule: Q01DX001 (ip), vehicle: saline
[4] = endpoint: mean survival time, dose: 100.0 mg/kg/injection, schedule: Q01DX009 (ip), vehicle: saline
[5] = endpoint: mean survival time, dose: 200.0 mg/kg/injection, schedule: Q01DX009 (ip), vehicle: saline
[6] = endpoint: mean survival time, dose: 400.0 mg/kg/injection, schedule: Q01DX009 (ip), vehicle: saline
[7] = endpoint: mean survival time, dose: 100.0 mg/kg/injection, schedule: Q04DX003 (ip), vehicle: saline with Tween-80
[8] = endpoint: mean survival time, dose: 200.0 mg/kg/injection, schedule: Q04DX003 (ip), vehicle: saline with Tween-80
[9] = endpoint: mean survival time, dose: 75.0 mg/kg/injection, schedule: Q01DX001 (ip), vehicle: other
[10] = endpoint: mean survival time, dose: 150.0 mg/kg/injection, schedule: Q01DX001 (ip), vehicle: other
[11] = endpoint: mean survival time, dose: 50.0 mg/kg/injection, schedule: Q01DX009 (ip), vehicle: saline with Tween-80
[12] = endpoint: mean survival time, dose: 100.0 mg/kg/injection, schedule: Q01DX009 (ip), vehicle: saline with Tween-80
[13] = endpoint: mean survival time, dose: 200.0 mg/kg/injection, schedule: Q01DX009 (ip), vehicle: saline with Tween-80
[14] = endpoint: mean survival time, dose: 400.0 mg/kg/injection, schedule: Q01DX009 (ip), vehicle: saline with Tween-80
[15] = endpoint: mean survival time, dose: 400.0 mg/kg/injection, schedule: Q04DX003 (ip), vehicle: saline with Tween-80

## CC1=CCCC(C)C2CC(C(C)(C)O)CC12 (centres undefined)
[1]
  T/C: 93 % of control
[2]
  T/C: 91 % of control
[3]
  T/C: 95 % of control

## O=C(c1ccccc1)C1CCCCC1
[4]
  T/C: 88 % of control
[5]
  T/C: 97 % of control
[6]
  T/C: 92 % of control

## C1N2CN3CN1CN(C2)C3.[Cl][Pt+2][Cl]
endpoint: mean survival time, dose: 18.75 mg/kg/injection, schedule: Q04DX003 (ip), vehicle: saline
  T/C: 103 % of control
endpoint: mean survival time, dose: 37.5 mg/kg/injection, schedule: Q04DX003 (ip), vehicle: saline
  T/C: 106 % of control
endpoint: mean survival time, dose: 75.0 mg/kg/injection, schedule: Q04DX003 (ip), vehicle: saline
  T/C: 101 % of control
endpoint: mean survival time, dose: 150.0 mg/kg/injection, schedule: Q04DX003 (ip), vehicle: saline
  T/C: 107 % of control
endpoint: mean survival time, dose: 300.0 mg/kg/injection, schedule: Q04DX003 (ip), vehicle: saline
  T/C: 103 % of control

## O=S(=O)(OCC1C2CC3C(C2)C13)c1ccc(Br)cc1 (centres undefined)
endpoint: mean survival time, dose: 100.0 mg/kg/injection, schedule: Q04DX003 (ip), vehicle: other
  T/C: 101 % of control
endpoint: mean survival time, dose: 200.0 mg/kg/injection, schedule: Q04DX003 (ip), vehicle: other
  T/C: 100 % of control
endpoint: mean survival time, dose: 400.0 mg/kg/injection, schedule: Q04DX003 (ip), vehicle: other
  T/C: 91 % of control

## CC1(C)C2CC=C(CCCc3ccccc3)C1C2 (centres undefined)
[7]
  T/C: 98 % of control
[8]
  T/C: 93 % of control

## CCC(C)OC(=O)CCl (centres undefined)
[9]
  T/C: 97 % of control
[10]
  T/C: 96 % of control

## CCSc1nc(N)c2ncn(C3OC(CO)C(O)C3O)c2n1 (centres undefined)
endpoint: median survival time, dose: 10.0 mg/kg/injection, schedule: Q01DX005 (ip), vehicle: saline with Tween-80
  T/C: 103 % of control
endpoint: median survival time, dose: 20.0 mg/kg/injection, schedule: Q01DX005 (ip), vehicle: saline with Tween-80
  T/C: 100 % of control
endpoint: median survival time, dose: 40.0 mg/kg/injection, schedule: Q01DX005 (ip), vehicle: saline with Tween-80
  T/C: 91 % of control
endpoint: median survival time, dose: 80.0 mg/kg/injection, schedule: Q01DX005 (ip), vehicle: saline with Tween-80
  T/C: 88 % of control
endpoint: median survival time, dose: 160.0 mg/kg/injection, schedule: Q01DX005 (ip), vehicle: saline with Tween-80
  T/C: 93 % of control

## c1ccc(C2=C(c3ccccn3)N=c3ccccc3=c3ccccc3=N2)nc1
endpoint: mean survival time, dose: 100.0 mg/kg/injection, schedule: Q01DX001 (ip), vehicle: saline with Tween-80
  T/C: 101 % of control
endpoint: mean survival time, dose: 200.0 mg/kg/injection, schedule: Q01DX001 (ip), vehicle: saline with Tween-80
  T/C: 111 % of control
endpoint: mean survival time, dose: 400.0 mg/kg/injection, schedule: Q01DX001 (ip), vehicle: saline with Tween-80
  T/C: 93 % of control

## c1ccc([P+](Cc2ccc3ccccc3n2)(c2ccccc2)c2ccccc2)cc1
endpoint: mean survival time, dose: 6.25 mg/kg/injection, schedule: Q01DX009 (ip), vehicle: saline
  T/C: 108 % of control
endpoint: mean survival time, dose: 12.5 mg/kg/injection, schedule: Q01DX009 (ip), vehicle: saline
  T/C: 112 % of control

## CCCCCC(=O)CCCC
[11]
  T/C: 109 % of control
[12]
  T/C: 102 % of control
[13]
  T/C: 105 % of control

## CC(C)NCC(O)c1ccc(O)c(O)c1 (centres undefined)
endpoint: mean survival time, dose: 4.0 mg/kg/injection, schedule: Q01DX009 (ip), vehicle: saline
  T/C: 101 % of control
endpoint: mean survival time, dose: 8.0 mg/kg/injection, schedule: Q01DX009 (ip), vehicle: saline
  T/C: 107 % of control and 109 % of control
endpoint: mean survival time, dose: 16.0 mg/kg/injection, schedule: Q01DX001 (ip), vehicle: saline
  T/C: 96 % of control
endpoint: mean survival time, dose: 16.0 mg/kg/injection, schedule: Q01DX009 (ip), vehicle: saline
  T/C: 107 % of control and 113 % of control
endpoint: mean survival time, dose: 32.0 mg/kg/injection, schedule: Q01DX001 (ip), vehicle: saline
  T/C: 100 % of control
endpoint: mean survival time, dose: 32.0 mg/kg/injection, schedule: Q01DX009 (ip), vehicle: saline
  T/C: 104 % of control and 107 % of control
endpoint: mean survival time, dose: 50.0 mg/kg/injection, schedule: Q01DX001 (ip), vehicle: saline
  T/C: 95 % of control
endpoint: mean survival time, dose: 64.0 mg/kg/injection, schedule: Q01DX001 (ip), vehicle: saline
  T/C: 98 % of control and 102 % of control
endpoint: mean survival time, dose: 64.0 mg/kg/injection, schedule: Q01DX009 (ip), vehicle: saline
  T/C: 121 % of control
[1]
  T/C: 104 % of control
[4]
  T/C: 108 % of control
endpoint: mean survival time, dose: 128.0 mg/kg/injection, schedule: Q01DX001 (ip), vehicle: saline
  T/C: 100 % of control and 105 % of control
endpoint: mean survival time, dose: 178.0 mg/kg/injection, schedule: Q01DX009 (ip), vehicle: saline
  T/C: 112 % of control
[2]
  T/C: 104 % of control
[5]
  T/C: 111 % of control
endpoint: mean survival time, dose: 256.0 mg/kg/injection, schedule: Q01DX001 (ip), vehicle: other
  T/C: 102 % of control
endpoint: mean survival time, dose: 256.0 mg/kg/injection, schedule: Q01DX001 (ip), vehicle: saline
  T/C: 105 % of control
endpoint: mean survival time, dose: 266.0 mg/kg/injection, schedule: Q01DX009 (ip), vehicle: saline
  T/C: 120 % of control
[3]
  T/C: 110 % of control
[6]
  T/C: 122 % of control
endpoint: mean survival time, dose: 600.0 mg/kg/injection, schedule: Q01DX009 (ip), vehicle: saline
  T/C: 112 % of control

## N#CC(NC(=O)NCCO)c1ccccc1 (centres undefined)
[12]
  T/C: 94 % of control
[13]
  T/C: 96 % of control
[14]
  T/C: 92 % of control

## COc1cc(/C=C/c2nc3ccccc3nc2/C=C/c2cc(OC)c(OC)c(OC)c2)cc(OC)c1OC
[13]
  T/C: 94 % of control
[14]
  T/C: 100 % of control
[15]
  T/C: 93 % of control

## COC(=O)C1(C)CCC(=O)O1 (centres undefined)
endpoint: mean survival time, dose: 100.0 mg/kg/injection, schedule: Q04DX002 (ip), vehicle: saline with Tween-80
  T/C: 98 % of control
endpoint: mean survival time, dose: 200.0 mg/kg/injection, schedule: Q04DX002 (ip), vehicle: saline with Tween-80
  T/C: 98 % of control
endpoint: mean survival time, dose: 400.0 mg/kg/injection, schedule: Q04DX002 (ip), vehicle: saline with Tween-80
  T/C: 102 % of control

## CCc1ncnc2cc(OCC3CO3)c(OC)cc12 (centres undefined)
endpoint: median survival time, dose: 6.25 mg/kg/injection, schedule: Q01DX009 (ip), vehicle: saline with Tween-80
  T/C: 109 % of control
endpoint: median survival time, dose: 6.25 mg/kg/injection, schedule: Q01DX009 (ip), vehicle: saline
  T/C: 112 % of control
endpoint: median survival time, dose: 7.5 mg/kg/injection, schedule: Q01DX009 (ip), vehicle: suspension in saline
  T/C: 123 % of control
endpoint: median survival time, dose: 10.0 mg/kg/injection, schedule: Q03DX003 (ip), vehicle: saline
  T/C: 154 % of control
endpoint: median survival time, dose: 12.5 mg/kg/injection, schedule: Q01DX009 (ip), vehicle: saline with Tween-80
  T/C: 116 % of control
endpoint: median survival time, dose: 12.5 mg/kg/injection, schedule: Q01DX009 (ip), vehicle: saline
  T/C: 121 % of control
endpoint: median survival time, dose: 20.0 mg/kg/injection, schedule: Q01DX009 (ip), vehicle: other
  T/C: 156 % of control
endpoint: median survival time, dose: 40.0 mg/kg/injection, schedule: Q01DX009 (ip), vehicle: other
  T/C: 166 % of control
endpoint: median survival time, dose: 40.0 mg/kg/injection, schedule: Q04DX003 (ip), vehicle: other
  T/C: 112 % of control
endpoint: median survival time, dose: 50.0 mg/kg/injection, schedule: Q01DX009 (ip), vehicle: DMSO
  T/C: 169 % of control
endpoint: median survival time, dose: 50.0 mg/kg/injection, schedule: Q03DX003 (ip), vehicle: saline
  T/C: 152 % of control and 169 % of control
endpoint: median survival time, dose: 80.0 mg/kg/injection, schedule: Q01DX001 (ip), vehicle: other
  T/C: 174 % of control
endpoint: median survival time, dose: 80.0 mg/kg/injection, schedule: Q01DX001 (ip), vehicle: water
  T/C: 178 % of control
endpoint: median survival time, dose: 80.0 mg/kg/injection, schedule: Q04DX003 (ip), vehicle: other
  T/C: 153 % of control
endpoint: median survival time, dose: 120.0 mg/kg/injection, schedule: Q01DX001 (ip), vehicle: other
  T/C: 182 % of control
endpoint: median survival time, dose: 120.0 mg/kg/injection, schedule: Q01DX001 (ip), vehicle: water
  T/C: 160 % of control
endpoint: median survival time, dose: 120.0 mg/kg/injection, schedule: Q04DX003 (ip), vehicle: other
  T/C: 150 % of control

## C/C(=N\N=C(/C)c1cccs1)c1cccs1
endpoint: median survival time, dose: 25.0 mg/kg/injection, schedule: Q04DX002 (ip), vehicle: saline with Tween-80
  T/C: 90 % of control
endpoint: median survival time, dose: 50.0 mg/kg/injection, schedule: Q04DX002 (ip), vehicle: saline with Tween-80
  T/C: 90 % of control
endpoint: median survival time, dose: 100.0 mg/kg/injection, schedule: Q04DX002 (ip), vehicle: saline with Tween-80
  T/C: 100 % of control
endpoint: median survival time, dose: 200.0 mg/kg/injection, schedule: Q04DX002 (ip), vehicle: saline with Tween-80
  T/C: 90 % of control

## Cc1ccc([N+](=O)[O-])c2ccccc12
[12]
  T/C: 91 % of control
[7]
  T/C: 88 % of control
[13]
  T/C: 91 % of control
[8]
  T/C: 90 % of control
[14]
  T/C: 95 % of control
[15]
  T/C: 94 % of control

## CCCCCCCCCCCCCCP(=O)(O)O
[9]
  T/C: 92 % of control
[10]
  T/C: 98 % of control
endpoint: mean survival time, dose: 300.0 mg/kg/injection, schedule: Q01DX001 (ip), vehicle: other
  T/C: 96 % of control

## CCOC(=O)C1=C(NC(=O)Nc2cccc(C(F)(F)F)c2)SC2CCCCC12 (centres undefined)
[11]
  T/C: 94 % of control
[12]
  T/C: 91 % of control
[13]
  T/C: 87 % of control
